Experimental data reported in patent US12595248B2, “PRMT5 inhibitors” (Merck Sharp & Dohme LLC, priority 2019, dated 2026).
Read-outs that look alike come from different tables or passages of the source.

Assays:
PRMT5 = molecular target: T1, PRMT5 (Homo sapiens, UniProt O14744); assay: PRMT5 Cell Target Engagement (TE) Assay; assay type: cell-based; settings: MCF-7 cells, treated for 3 days, symmetric dimethylation of arginine (SDMA) by high content imaging
T1 construct: seeded with 4000 MCF-7 cells in 30 μl media; endogenous in cells; host or cells: MCF-7 cells
T1 sequence (O14744 whole entry): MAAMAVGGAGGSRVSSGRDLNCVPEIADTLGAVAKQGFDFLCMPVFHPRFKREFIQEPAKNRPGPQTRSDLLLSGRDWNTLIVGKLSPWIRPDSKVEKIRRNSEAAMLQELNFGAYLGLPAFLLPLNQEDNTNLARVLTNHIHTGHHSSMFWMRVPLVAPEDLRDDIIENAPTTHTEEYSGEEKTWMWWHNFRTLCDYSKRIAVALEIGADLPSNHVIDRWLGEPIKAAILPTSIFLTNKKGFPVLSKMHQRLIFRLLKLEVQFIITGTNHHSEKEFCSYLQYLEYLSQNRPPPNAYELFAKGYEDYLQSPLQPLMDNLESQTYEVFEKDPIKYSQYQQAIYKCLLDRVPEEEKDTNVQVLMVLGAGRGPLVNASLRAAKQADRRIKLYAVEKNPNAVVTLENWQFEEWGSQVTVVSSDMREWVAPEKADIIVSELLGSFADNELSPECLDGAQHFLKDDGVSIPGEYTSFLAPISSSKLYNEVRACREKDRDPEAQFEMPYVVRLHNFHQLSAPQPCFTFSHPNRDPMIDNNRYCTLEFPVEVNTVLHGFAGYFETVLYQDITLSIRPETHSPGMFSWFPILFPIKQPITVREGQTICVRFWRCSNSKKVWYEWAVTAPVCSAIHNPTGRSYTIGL
T1 sequence (Q9BQA1 whole entry partner): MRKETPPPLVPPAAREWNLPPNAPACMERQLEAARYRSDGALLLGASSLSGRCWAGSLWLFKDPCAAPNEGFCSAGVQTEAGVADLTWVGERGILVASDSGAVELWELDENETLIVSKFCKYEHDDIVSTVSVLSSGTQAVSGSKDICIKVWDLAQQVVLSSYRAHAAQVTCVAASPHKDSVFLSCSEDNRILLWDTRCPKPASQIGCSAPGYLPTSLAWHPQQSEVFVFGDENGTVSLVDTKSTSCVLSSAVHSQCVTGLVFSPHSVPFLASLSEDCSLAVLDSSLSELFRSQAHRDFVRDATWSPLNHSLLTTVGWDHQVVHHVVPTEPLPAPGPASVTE
Source text: PRMT5 Cell Target Engagement (TE) Assay
The PRMT5 TE assay is a biomarker assay for identifying compounds that inhibit symmetric dimethylation of arginine (SDMA) of PRMT5 substrates. The following substrates have been reported for PRMT5: histone H2A and H4 R3, Histone H3 R2, Histone H3 R8, spliceosome Sm proteins, ribosomal protein RPS10, p53, FEN1, nucleoplasmin, nucleolin, EGFR and EBNA. The assay focuses on detecting symmetrically dimethylated nuclear proteins using high content imaging technology. Detection of the expression of symmetrically dimethylated nuclear proteins is through a mixture of primary rabbit monoclonal antibodies to SDMA (CST 13222), which in turn recognized by an Alexafluor 488 dye-conjugated anti-rabbit IgG secondary antibody. The IN Cell Analyzer 2200 or Opera-Phenix measures nuclear Alexafluor 488 fluorescent dye intensity that is directly related to the level of expression of symmetrically dimethylated nuclear proteins at the single cell level. Nuclear AF488 dye intensities are compared to the mean value for DMSO treated cells (MIN) to report percent of inhibition for each compound-treated well.
In this assay, the cell potency (EC50) of each compound was determined from a ten point (1:3 serial dilution; top compound concentration of 10000 nM) titration curve using the following outlined procedure. Each well of a BD falcon collagen coated black/clear bottom 384-well plate was seeded with 4000 MCF-7 cells in 30 μl media and allowed to attach for 5 h. Media is ATCC-formulated Eagle's Minimum Essential Medium, Catalog No. 30-2003. To make the complete growth medium, the following components were added to the base medium: 0.01 mg/mL human recombinant insulin; fetal bovine serum to a final concentration of 10%. Additional 30 μl of media containing 2× compounds were added to each well. Cells were treated for 3 days in 37° C. CO2 incubator. On day 3, cells were fixed with Cytofix, permeabilized with 0.4% Triton-X-100/Cytofix, and washed with D-PBS without Ca/Mg. Cells were blocked with Licor Odessey blocking reagent for 1 h at room temperature, followed by incubation with anti-SDMA (1:1000) antibody at 4° C. overnight. 1° antibody was removed, followed by three washings with DPBS without Ca/Mg and 0.05% Tween20. Hoechst (5 μg/mL), Cell Mask deep stain (1:2000) and Alexa488-conjugated goat anti-rabbit IgG (2 μg/mL) was added for 1 h at room temperature. A final washing step (three washes) was performed before sealing plate for imaging on In Cell Analyzer 2200 or Opera-Phenix. Images from analyzer were uploaded to Columbus (at WP or BOS) for image analysis. IC50 values were determined by 4 parameters robust fit of percent fluorescence units vs. (Log10) compound concentrations.

[1] = molecular target: T2, PRMT5-MEP50 enzyme complex (Homo sapiens, UniProt O14744); assay: PRMT5-MEP50 Enzyme Methylation Assay (Version B); assay type: biochemical
T2 construct: Full-length (FL)-PRMT5-MEP50 enzyme complex (recombinant proteins from baculovirus-transfected Sf21 cells: FL-PRMT5; MW=73837 kDa and FL-MEP50; MW=38614); made in house; host or cells: baculovirus-transfected Sf21 cells
T2 sequence (O14744 whole entry): as the sequence (O14744 whole entry) above
T2 sequence (Q9BQA1 whole entry partner): as the sequence (Q9BQA1 whole entry partner) above
Procedure: PRMT5-MEP50 Enzyme Methylation Assay (Version B)
PRMT5-MEP50 biochemical assay is a direct measurement of the methylation activity of the enzyme complex on a short peptide substrate derived from the N-terminus of H4 histone. Methylation experiment was performed with recombinant PRMT5-MEP50 protein complex. The assessment of inhibitory effect (EC50) of small molecules was measured by the effectiveness of the compounds to inhibit this reaction.
In this assay, the potency (EC50) of each compound was determined from a twenty-point (1:2 serial dilution; top compound concentration of 100000 nM) titration curve using the following outlined procedure. To each well of a white ProxiPlus 384 well-plate, 100 nL of compound (1% DMSO in final assay volume of 10 μL) was dispensed, followed by the addition of 8 μL of 1× assay buffer (50 mM Bicine pH 8.0, 1 mM DTT, 0.004% Tween20, 0.01% BSA) containing 0.625 nM of Full-length (FL)-PRMT5-MEP50 enzyme complex (recombinant proteins from baculovirus-transfected Sf21 cells: FL-PRMT5; MW=[…] and FL-MEP50; MW=38614). Plates were sealed and placed in a 37° C. humidified chamber for 30 minutes pre-incubation with compounds. Subsequently, each reaction was initiated by the addition of 2 μL 1× assay buffer containing 375 nM biotinylated H4R3 (MeI) peptide, and 75 μM S-(5′-Adenosyl)-L-Methionine Chloride (SAM). The final reaction in each well of 10 μL consists of 0.5 nM PRMT5-MEP50, 75 nM biotinylated-peptide, and 15 μM SAM. Methylation reactions were allowed to proceed for 150 minutes in a sealed plate at 37° C. Reactions were immediately quenched by the addition of 1 μL of 10% formic acid. Plates were then frozen and shipped to SAMDI™ Tech Inc. to determine the percent conversion from […]. Dose-response curves were generated by plotting percent effect (% product conversion; Y-axis) vs. Log 10 compound concentrations (X-axis). EC50 values were determined by non-linear regression according to models for either sigmoidal (4 parameters) or biphasic (7 parameters) dose-response curves.

[2] = only one EC50 shown: 4 parameters single site sigmoidal model, 30 min pre-incubation, read-out: Enzyme Methylation Assay Version B (EC50)
[3] = first of two EC50s: 7 parameters biphasic model, read-out: Enzyme Methylation Assay Version B (EC50_1)
[4] = second of two EC50s: 7 parameters biphasic model, read-out: Enzyme Methylation Assay Version B (EC50_2)

| Structure (SMILES) | EC50 (PRMT5) | EC50 [1, 2] | EC50 [1, 3] | EC50 [1, 4] |
| --- | --- | --- | --- | --- |
| CC(=O)N1CCC(Nc2cc(C(=O)N3C[C@H]4C[C@@H]3C(O)C4N3CCc4ccccc4C3)c(F)cn2)CC1 (single isomer, unassigned) [Example 30] | > 10000 nM | 4830 nM |  |  |
| Cc1ccc2c(c1)CN(C1CCN(C(=O)c3ccc(OCC(F)(F)F)nc3)CC1O)CC2 (single isomer, unassigned) [Example 47, ((3R,4R or 3S,4S)-3-hydroxy-4-(7-methyl-3,4-dihydroisoquinolin-2(1H)-yl)piperidin-1-yl)(6-(2,2,2-trifluoroethoxy)pyridin-3-yl)methanone] | > 10000 nM | 1180 nM |  |  |
| O=C(c1cn2c(n1)CCC(C(F)(F)F)C2)N1CC[C@H](N2CCc3ccccc3C2)[C@@H](O)C1 (single isomer, unassigned) [Example 82] | 100 nM |  | ~8 nM | 6170 nM |
| O=C(c1cn2c(n1)CCC(C(F)(F)F)C2)N1CC[C@H](N2CCc3ccccc3C2)[C@@H](O)C1 (single isomer, unassigned) [Example 83] | 365 nM |  | 12 nM | 9550 nM |
| CC(=O)N1CCC(Nc2cc(C(=O)N3CC[C@H](N4CCc5ccccc5C4)[C@@H](O)C3)c(F)cn2)C(F)(F)C1 (single isomer, unassigned) [Example 86] | 4.4 nM |  | 5.3 nM | 3760 nM |
| CC(C)(C#N)c1ccc(C(=O)N2CC[C@H](N3CCc4ccccc4C3)[C@@H](O)C2)cn1 (single isomer, unassigned) [Example 89] | 3950 nM |  | ~110 nM | > 100000 nM |
| CC1OC(=O)Nc2cc(C(=O)N3CC[C@H](N4CCc5ccccc5C4)[C@@H](O)C3)ccc21 (single isomer, unassigned) [Example 91] | 7530 nM |  | 127 nM | 70800 nM |
| CC1OC(=O)Nc2cc(C(=O)N3CC[C@@H](N4CCc5ccccc5C4)[C@H](O)C3)ccc21 (single isomer, unassigned) [Example 93] | 182 nM |  | ~18 nM | 11800 nM |
| CC1OC(=O)Nc2cc(C(=O)N3CC[C@H](N4CCc5ccccc5C4)[C@@H](O)C3)ccc21 (single isomer, unassigned) [Example 94] | 4560 nM |  | ~291 nM | > 100000 nM |
| CC1OC(=O)Nc2cc(C(=O)N3CC[C@H](N4CCc5ccccc5C4)[C@@H](O)C3)c(F)cc21 (single isomer, unassigned) [Example 99] | 131 nM |  | 8.2 nM | 8710 nM |
| CC1OC(=O)Nc2cc(C(=O)N3CC[C@H](N4CCc5ccccc5C4)[C@@H](O)C3)c(F)cc21 (single isomer, unassigned) [Example 100] | 15 nM |  | 4.8 nM | 1720 nM |
| Cc1ccc2c(c1)CCN([C@H]1CCN(C(=O)c3ccc(OCC(F)(F)F)nc3)C[C@@H]1O)C2 [Example 4, ((3S,4S)-3-hydroxy-4-(6-methyl-3,4-dihydroisoquinolin-2(1H)-yl)piperidin-1-yl)(6-(2,2,2-trifluoroethoxy)pyridin-3-yl)methanone] | > 10000 nM |  | ~10 nM | 29200 nM |
| Cc1ccc2c(c1)CCN([C@@H]1CCN(C(=O)c3ccc(OCC(F)(F)F)nc3)C[C@H]1O)C2 [Example 5, ((3R,4R)-3-hydroxy-4-(6-methyl-3,4-dihydroisoquinolin-2(1H)-yl)piperidin-1-yl)(6-(2,2,2-trifluoroethoxy)pyridin-3-yl)methanone] | > 10000 nM | 1410 nM |  |  |
| O=C(c1ccn(CC(F)(F)F)c(=O)c1)N1CC[C@H](N2CCc3ccccc3C2)[C@@H](O)C1 [Example 31, 4-((3S,4S)-4-(3,4-dihydroisoquinolin-2(1H)-yl)-3-hydroxypiperidine-1-carbonyl)-1-(2,2,2-trifluoroethyl)pyridin-2(1H)-one] | 405 nM |  | ~30 nM | 34300 nM |
| CCOc1cc(C(=O)N2C3CCC2COC3)ccc1C(=O)N1CC[C@H](N2CCc3ccccc3C2)[C@@H](O)C1 [Example 33] | 27 nM |  | 23 nM | 4650 nM |

The remaining lines, values ahead:

| EC50 (PRMT5) | EC50 [1, 2] | EC50 [1, 3] | EC50 [1, 4] | Structure (SMILES) |
| --- | --- | --- | --- | --- |
| > 10000 nM | 1340 nM |  |  | O=C(c1ccc(OCC(F)(F)F)nc1)N1CCC(N2Cc3ccccc3C(F)(F)C2)C(O)C1 (single isomer, unassigned) [Example 29, (-4-(4,4-difluoro-3,4-dihydroisoquinolin-2(1H)-yl)-3-hydroxypiperidin-1-yl)(6-(2,2,2-trifluoroethoxy)pyridin-3-yl)methanone] |
| > 10000 nM | 17800 nM |  |  | Cc1ccc2c(c1)CN(C1CCN(C(=O)c3ccc(OCC(F)(F)F)nc3)CC1O)CC2 (single isomer, unassigned) [Example 48, ((3S,4S or 3R,4R)-3-hydroxy-4-(7-methyl-3,4-dihydroisoquinolin-2(1H)-yl)piperidin-1-yl)(6-(2,2,2-trifluoroethoxy)pyridin-3-yl)methanone] |
| 59 nM |  | 8.6 nM | 7240 nM | CC(=O)N1CCC(Nc2cc(C(=O)N3CC[C@H](N4CCc5ccccc5C4)[C@@H](O)C3)c(F)cn2)C(F)(F)C1 (single isomer, unassigned) [Example 87] |
| > 10000 nM | 1540 nM |  |  | CC(C)(C#N)c1ccc(C(=O)N2CC[C@@H](N3CCc4ccccc4C3)[C@H](O)C2)cn1 (single isomer, unassigned) [Example 90] |
| 32 nM |  | 4.4 nM | 2460 nM | CC1OC(=O)Nc2cc(C(=O)N3CC[C@@H](N4CCc5ccccc5C4)[C@H](O)C3)ccc21 (single isomer, unassigned) [Example 92] |
| 3090 nM |  | ~75 nM | 37600 nM | CC(=O)N1CCC(Nc2cc(C(=O)N3CC[C@@H](N4CCc5ccccc5C4)[C@H](O)C3)c(F)cn2)CC1 [Example 3, 1-(4-((4-((3R,4R)-4-(3,4-dihydroisoquinolin-2(1H)-yl)-3-hydroxypiperidine-l-carbonyl)-5-fluoropyridin-2-yl)amino)piperidin-l-yl)ethan-l-one] |
| > 10000 nM | 2160 nM |  |  | O=C(c1ccn(CC(F)(F)F)c(=O)c1)N1CC[C@@H](N2CCc3ccccc3C2)[C@H](O)C1 [Example 32, 4-((3R,4R)-4-(3,4-dihydroisoquinolin-2(1H)-yl)-3-hydroxypiperidine-1-carbonyl)-1-(2,2,2-trifluoroethyl)pyridin-2(1H)-one] |
